{"source": "ChEMBL document CHEMBL5212743", "about": "“Selectivity Literature for EUbOPEN Chemogenomics Library wave 3” (2023)", "key": {"[1]": {"target": "Vascular endothelial growth factor receptor 2 (Homo sapiens, UniProt P35968)", "sequence (P35968 whole entry)": "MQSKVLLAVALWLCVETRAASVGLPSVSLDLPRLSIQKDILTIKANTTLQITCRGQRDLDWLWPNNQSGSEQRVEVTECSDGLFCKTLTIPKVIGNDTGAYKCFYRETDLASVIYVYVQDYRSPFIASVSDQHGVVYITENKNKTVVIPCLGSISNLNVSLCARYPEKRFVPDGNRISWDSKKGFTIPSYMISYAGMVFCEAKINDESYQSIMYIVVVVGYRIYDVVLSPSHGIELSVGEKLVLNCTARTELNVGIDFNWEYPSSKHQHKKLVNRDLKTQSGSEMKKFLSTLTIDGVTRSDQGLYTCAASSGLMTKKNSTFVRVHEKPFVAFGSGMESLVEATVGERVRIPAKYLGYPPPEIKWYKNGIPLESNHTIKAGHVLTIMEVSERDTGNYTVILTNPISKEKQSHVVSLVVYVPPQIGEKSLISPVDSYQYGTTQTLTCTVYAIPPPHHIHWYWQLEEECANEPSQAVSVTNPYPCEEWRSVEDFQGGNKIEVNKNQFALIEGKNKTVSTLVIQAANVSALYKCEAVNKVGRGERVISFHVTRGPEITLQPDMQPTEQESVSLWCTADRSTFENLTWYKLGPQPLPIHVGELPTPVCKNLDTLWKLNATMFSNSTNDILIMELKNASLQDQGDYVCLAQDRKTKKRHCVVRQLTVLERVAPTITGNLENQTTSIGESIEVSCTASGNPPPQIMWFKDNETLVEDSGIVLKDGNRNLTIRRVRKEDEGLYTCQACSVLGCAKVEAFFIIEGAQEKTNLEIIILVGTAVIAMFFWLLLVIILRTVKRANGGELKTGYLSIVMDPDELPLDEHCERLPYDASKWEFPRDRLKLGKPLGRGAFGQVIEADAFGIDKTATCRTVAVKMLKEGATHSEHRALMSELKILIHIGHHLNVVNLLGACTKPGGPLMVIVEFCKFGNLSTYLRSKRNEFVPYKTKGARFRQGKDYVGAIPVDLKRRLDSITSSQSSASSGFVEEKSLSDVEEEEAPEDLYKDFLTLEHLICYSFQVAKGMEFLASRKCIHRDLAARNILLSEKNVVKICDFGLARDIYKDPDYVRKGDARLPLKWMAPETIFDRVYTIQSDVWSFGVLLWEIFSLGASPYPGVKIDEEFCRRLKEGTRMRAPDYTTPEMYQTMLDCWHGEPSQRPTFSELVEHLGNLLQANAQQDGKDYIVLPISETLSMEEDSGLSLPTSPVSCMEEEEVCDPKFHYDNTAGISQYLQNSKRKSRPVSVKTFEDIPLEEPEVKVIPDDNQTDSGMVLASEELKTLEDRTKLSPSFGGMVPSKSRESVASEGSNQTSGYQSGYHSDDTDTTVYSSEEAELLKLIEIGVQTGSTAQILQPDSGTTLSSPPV", "conditions": "at 10 µM"}, "[2]": {"target": "Mitogen-activated protein kinase 14 (Homo sapiens, UniProt Q16539)", "sequence (Q16539 whole entry)": "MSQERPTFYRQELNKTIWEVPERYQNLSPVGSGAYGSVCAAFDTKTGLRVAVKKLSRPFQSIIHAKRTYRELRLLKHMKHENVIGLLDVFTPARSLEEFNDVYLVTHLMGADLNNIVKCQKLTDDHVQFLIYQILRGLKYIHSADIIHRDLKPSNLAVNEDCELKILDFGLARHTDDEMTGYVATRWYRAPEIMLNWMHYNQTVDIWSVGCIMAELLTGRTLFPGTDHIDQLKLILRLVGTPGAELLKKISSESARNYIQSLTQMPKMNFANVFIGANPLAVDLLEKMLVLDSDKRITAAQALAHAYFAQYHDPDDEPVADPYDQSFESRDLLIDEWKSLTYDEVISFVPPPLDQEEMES", "test": "Selectivity interaction (Enzymatic assay) EUB0000624a MAPK14"}, "[3]": {"target": "Insulin-like growth factor 1 receptor (Homo sapiens, UniProt P08069)", "sequence (P08069 31-736 limits assumed)": "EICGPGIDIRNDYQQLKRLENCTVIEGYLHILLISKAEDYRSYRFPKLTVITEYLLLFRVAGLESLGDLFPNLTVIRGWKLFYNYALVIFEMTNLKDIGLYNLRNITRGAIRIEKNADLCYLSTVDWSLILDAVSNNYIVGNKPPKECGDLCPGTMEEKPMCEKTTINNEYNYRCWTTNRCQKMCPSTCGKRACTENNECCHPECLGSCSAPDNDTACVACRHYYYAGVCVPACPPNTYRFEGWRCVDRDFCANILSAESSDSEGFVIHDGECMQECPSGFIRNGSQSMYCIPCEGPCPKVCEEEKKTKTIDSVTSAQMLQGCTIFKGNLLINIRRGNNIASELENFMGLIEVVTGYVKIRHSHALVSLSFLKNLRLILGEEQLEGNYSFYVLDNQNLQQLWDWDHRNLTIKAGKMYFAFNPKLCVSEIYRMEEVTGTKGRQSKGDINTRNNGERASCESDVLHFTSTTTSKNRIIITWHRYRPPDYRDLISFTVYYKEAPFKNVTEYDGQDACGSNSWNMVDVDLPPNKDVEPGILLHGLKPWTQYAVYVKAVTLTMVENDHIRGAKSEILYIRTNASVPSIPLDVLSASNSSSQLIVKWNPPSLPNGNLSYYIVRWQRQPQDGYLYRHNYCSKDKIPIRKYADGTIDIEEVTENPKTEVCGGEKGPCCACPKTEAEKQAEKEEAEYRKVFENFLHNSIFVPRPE", "sequence (P08069 741-1367 limits assumed)": "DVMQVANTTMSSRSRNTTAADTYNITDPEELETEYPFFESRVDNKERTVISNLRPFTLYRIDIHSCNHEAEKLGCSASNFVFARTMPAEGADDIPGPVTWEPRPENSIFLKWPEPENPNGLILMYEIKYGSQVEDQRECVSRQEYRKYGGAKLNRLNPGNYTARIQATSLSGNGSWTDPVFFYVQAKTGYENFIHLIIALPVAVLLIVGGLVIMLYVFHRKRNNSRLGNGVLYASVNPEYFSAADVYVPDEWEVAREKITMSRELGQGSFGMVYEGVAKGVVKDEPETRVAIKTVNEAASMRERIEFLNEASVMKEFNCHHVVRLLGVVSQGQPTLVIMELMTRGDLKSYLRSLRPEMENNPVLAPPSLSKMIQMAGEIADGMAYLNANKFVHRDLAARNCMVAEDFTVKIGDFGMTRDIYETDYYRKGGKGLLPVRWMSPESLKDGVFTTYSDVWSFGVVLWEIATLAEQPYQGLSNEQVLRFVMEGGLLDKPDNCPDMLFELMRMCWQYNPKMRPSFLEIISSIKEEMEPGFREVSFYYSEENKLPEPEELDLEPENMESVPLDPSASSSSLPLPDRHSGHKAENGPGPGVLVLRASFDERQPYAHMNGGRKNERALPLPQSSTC", "test": "Selectivity interaction (Enzymatic assay) EUB0000624a IGF1R"}, "[4]": {"target": "Inhibitor of nuclear factor kappa-B kinase subunit alpha (Homo sapiens, UniProt O15111)", "sequence (O15111 whole entry)": "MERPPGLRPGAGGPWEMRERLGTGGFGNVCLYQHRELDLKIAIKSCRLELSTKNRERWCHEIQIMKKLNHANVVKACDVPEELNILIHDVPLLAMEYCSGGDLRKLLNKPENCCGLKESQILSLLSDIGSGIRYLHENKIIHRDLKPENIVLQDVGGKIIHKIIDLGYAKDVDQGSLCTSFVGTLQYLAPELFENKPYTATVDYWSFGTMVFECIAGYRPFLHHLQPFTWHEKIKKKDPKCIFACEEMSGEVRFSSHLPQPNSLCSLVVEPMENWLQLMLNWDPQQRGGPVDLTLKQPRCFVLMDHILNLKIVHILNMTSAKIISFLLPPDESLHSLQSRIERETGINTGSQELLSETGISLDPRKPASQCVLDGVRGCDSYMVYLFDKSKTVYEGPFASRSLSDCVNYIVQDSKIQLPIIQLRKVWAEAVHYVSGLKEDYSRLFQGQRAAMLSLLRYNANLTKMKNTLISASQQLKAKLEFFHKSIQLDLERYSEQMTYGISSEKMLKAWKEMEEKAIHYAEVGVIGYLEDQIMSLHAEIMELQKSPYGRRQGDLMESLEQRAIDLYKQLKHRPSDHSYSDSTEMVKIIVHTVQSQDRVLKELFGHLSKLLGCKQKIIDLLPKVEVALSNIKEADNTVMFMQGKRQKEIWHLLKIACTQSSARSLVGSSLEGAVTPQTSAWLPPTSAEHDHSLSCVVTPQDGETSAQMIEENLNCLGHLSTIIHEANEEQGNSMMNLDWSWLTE", "test": "Selectivity interaction (Enzymatic assay) EUB0000624a CHUK"}, "[5]": {"target": "Cyclin-dependent kinase 2 (Homo sapiens, UniProt P24941)", "test": "Selectivity interaction (Enzymatic assay) EUB0000624a CDK2"}, "[6]": {"target": "Inhibitor of nuclear factor kappa-B kinase subunit beta (Homo sapiens, UniProt O14920)", "test": "Selectivity interaction (Enzymatic assay) EUB0000624a IKBKB"}, "[7]": {"target": "cAMP-dependent protein kinase catalytic subunit alpha (Homo sapiens, UniProt P17612)", "test": "Selectivity interaction (Enzymatic assay) EUB0000624a PRKACA"}, "[8]": {"target": "Platelet-derived growth factor receptor alpha (Homo sapiens, UniProt P16234)", "conditions": "at 10 µM"}, "[9]": {"target": "Serine/threonine-protein kinase PLK3 (Homo sapiens, UniProt Q9H4B4)", "test": "Selectivity interaction (Enzymatic assay) EUB0000624a PLK3"}, "[10]": {"target": "T1, Casein kinase I isoform epsilon (Homo sapiens, UniProt P49674)", "test": "Selectivity interaction (KinomeScan (DiscoverX)) EUB0000718a CSNK1E", "conditions": "at 1 µM"}, "[11]": {"target": "T2, Casein kinase I isoform gamma-3 (Homo sapiens, UniProt Q9Y6M4)", "test": "Selectivity interaction (NanoBRET assay (HEK293T cells)) EUB0000718a CSNK1G3"}, "Aurora kinase B": {"target": "Aurora kinase B (Homo sapiens, UniProt Q96GD4)", "sequence (Q96GD4 whole entry)": "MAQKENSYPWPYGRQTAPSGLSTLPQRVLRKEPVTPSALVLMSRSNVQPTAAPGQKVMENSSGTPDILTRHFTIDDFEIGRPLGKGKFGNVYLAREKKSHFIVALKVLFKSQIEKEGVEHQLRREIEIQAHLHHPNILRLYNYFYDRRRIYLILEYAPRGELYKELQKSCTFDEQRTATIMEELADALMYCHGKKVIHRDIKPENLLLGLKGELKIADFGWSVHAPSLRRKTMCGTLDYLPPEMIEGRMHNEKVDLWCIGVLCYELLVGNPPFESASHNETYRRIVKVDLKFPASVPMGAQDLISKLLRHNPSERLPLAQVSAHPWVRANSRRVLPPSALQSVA", "test": "Selectivity interaction (KinomeScan (DiscoverX)) EUB0000718a AURKB", "conditions": "at 1 µM"}, "[12]": {"target": "T3, Mitogen-activated protein kinase 12 (Homo sapiens) (UniProt P53778)", "T3 sequence (whole entry)": "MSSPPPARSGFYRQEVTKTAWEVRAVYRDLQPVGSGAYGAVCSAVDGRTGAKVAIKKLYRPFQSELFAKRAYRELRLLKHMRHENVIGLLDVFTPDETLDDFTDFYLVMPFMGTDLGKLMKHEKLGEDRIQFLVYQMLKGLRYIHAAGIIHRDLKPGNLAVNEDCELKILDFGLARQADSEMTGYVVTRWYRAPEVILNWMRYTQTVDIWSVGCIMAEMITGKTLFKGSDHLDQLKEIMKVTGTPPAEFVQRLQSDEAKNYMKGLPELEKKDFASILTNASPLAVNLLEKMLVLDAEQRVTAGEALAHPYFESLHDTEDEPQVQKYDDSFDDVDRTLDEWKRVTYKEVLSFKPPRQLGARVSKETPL", "test": "Selectivity interaction (KinomeScan (DiscoverX)) EUB0000718a MAPK12", "conditions": "at 1 µM"}, "[13]": {"target": "T4, Casein kinase I isoform delta (Homo sapiens, UniProt P48730)", "test": "Selectivity interaction (NanoBRET assay (HEK293T cells)) EUB0000718a CSNK1D"}, "[14]": {"target": "T4, Casein kinase I isoform delta", "test": "Selectivity interaction (KinomeScan (DiscoverX)) EUB0000718a CSNK1D", "conditions": "at 1 µM"}, "[15]": {"target": "T1, Casein kinase I isoform epsilon", "test": "Selectivity interaction (NanoBRET assay (HEK293T cells)) EUB0000718a CSNK1E"}, "[16]": {"target": "T2, Casein kinase I isoform gamma-3", "test": "Selectivity interaction (KinomeScan (DiscoverX)) EUB0000718a CSNK1G3", "conditions": "at 1 µM"}, "[17]": {"target": "Cyclin-dependent kinase 11A (Homo sapiens, UniProt Q9UQ88)", "test": "Selectivity interaction (ScanMAX (DiscoverX)) EUB0000005b CDK11A"}, "[18]": {"target": "Bromodomain-containing protein 7 (Homo sapiens, UniProt Q9NPI1)", "sequence (Q9NPI1 whole entry)": "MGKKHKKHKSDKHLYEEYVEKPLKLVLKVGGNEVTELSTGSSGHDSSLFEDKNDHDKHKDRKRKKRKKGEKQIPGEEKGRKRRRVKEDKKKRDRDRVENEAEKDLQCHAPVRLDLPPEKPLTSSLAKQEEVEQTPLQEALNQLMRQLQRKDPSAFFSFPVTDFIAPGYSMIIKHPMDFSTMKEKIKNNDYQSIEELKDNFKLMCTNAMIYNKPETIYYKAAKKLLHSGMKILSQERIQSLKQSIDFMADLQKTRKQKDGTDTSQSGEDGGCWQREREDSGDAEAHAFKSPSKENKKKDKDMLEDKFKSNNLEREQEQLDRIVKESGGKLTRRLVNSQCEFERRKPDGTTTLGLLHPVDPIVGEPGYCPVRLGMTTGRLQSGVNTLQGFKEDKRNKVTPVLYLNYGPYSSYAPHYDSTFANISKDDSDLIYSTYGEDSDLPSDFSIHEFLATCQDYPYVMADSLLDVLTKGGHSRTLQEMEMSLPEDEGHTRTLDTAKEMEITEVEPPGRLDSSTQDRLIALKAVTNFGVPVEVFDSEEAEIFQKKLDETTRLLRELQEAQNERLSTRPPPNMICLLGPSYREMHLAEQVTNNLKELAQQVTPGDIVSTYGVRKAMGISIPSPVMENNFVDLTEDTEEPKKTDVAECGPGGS", "test": "Selectivity interaction (BROMOscan™ panel (DiscoverX)) EUB0000256b BRD7"}, "Peregrin": {"target": "Peregrin (Homo sapiens, UniProt P55201)", "test": "Selectivity interaction (BROMOscan™ panel (DiscoverX)) EUB0000256b BRPF1"}, "[19]": {"target": "Bromodomain-containing protein 9 (Homo sapiens, UniProt Q9H8M2)", "test": "Selectivity interaction (BROMOscan™ panel (DiscoverX)) EUB0000256b BRD9"}, "[20]": {"target": "Bromodomain adjacent to zinc finger domain protein 2B (Homo sapiens, UniProt Q9UIF8)", "test": "Selectivity interaction (BROMOscan™ panel (DiscoverX)) EUB0000256b BAZ2B"}, "[21]": {"target": "Histone acetyltransferase KAT2B (Homo sapiens, UniProt Q92831)", "test": "Selectivity interaction (TR-FRET assay) EUB0000256b KAT2B"}, "[22]": {"target": "Bromodomain-containing protein 1 (Homo sapiens, UniProt O95696)", "test": "Selectivity interaction (BROMOscan™ panel (DiscoverX)) EUB0000256b BRD1"}, "Acetylcholinesterase": {"target": "Acetylcholinesterase (Homo sapiens, UniProt P22303)", "test": "Selectivity interaction (Internal GSK panel (receptors, ion channels and other enzymes )) EUB0000256b ACHE"}}}
{"smiles": "CCOc1ccn(-c2ccc(F)cc2)c(=O)c1C(=O)Nc1ccc(Oc2ccnc(N)c2Cl)c(F)c1", "note": "[BMS-777607]", "values": [{"measurement": "% of control", "setting": "[1]", "value": 0.2, "unit": "%"}, {"measurement": "IC50", "setting": "[2]", "value": "> 2", "unit": "µM"}, {"measurement": "IC50", "setting": "[3]", "value": "> 2", "unit": "µM"}, {"measurement": "IC50", "setting": "[4]", "value": "> 2", "unit": "µM"}, {"measurement": "IC50", "setting": "[5]", "value": "> 2", "unit": "µM"}, {"measurement": "IC50", "setting": "[6]", "value": "> 2", "unit": "µM"}, {"measurement": "IC50", "setting": "[7]", "value": 0.55, "unit": "µM"}, {"measurement": "% of control", "setting": "[8]", "value": 0.2, "unit": "%"}, {"measurement": "IC50", "setting": "[9]", "value": "> 2", "unit": "µM"}]}
{"smiles": "O=C(NCCN1CCOCC1)c1ccc2c(c1)C(=O)c1ccc(Nc3ccc(F)c(NC(=O)c4ccccc4)c3)cc1CC2", "note": "[FS-694]", "values": [{"measurement": "% of control", "setting": "[10]", "value": 0.75, "unit": "%"}, {"measurement": "IC50", "setting": "[11]", "value": "> 20", "unit": "µM"}, {"measurement": "% of control", "setting": "Aurora kinase B", "value": 22, "unit": "%"}, {"measurement": "% of control", "setting": "[12]", "value": 14, "unit": "%"}, {"measurement": "IC50", "setting": "[13]", "value": "> 20", "unit": "µM"}, {"measurement": "% of control", "setting": "[14]", "value": 5.8, "unit": "%"}, {"measurement": "IC50", "setting": "[15]", "value": "> 20", "unit": "µM"}, {"measurement": "% of control", "setting": "[16]", "value": 35, "unit": "%"}]}
{"smiles": "Cc1cn(-c2cc(NC(=O)c3ccc4c(c3)CN(c3cncnc3)C[C@@H]4C)cc(C(F)(F)F)c2)cn1", "values": [{"measurement": "Kd", "setting": "[17]", "value": 0.37, "unit": "µM"}]}
{"smiles": "CN1C[C@H](Nc2cnn(C)c(=O)c2Br)C[C@H](c2ccccc2)C1", "values": [{"measurement": "Ki", "setting": "[18]", "value": 1.5, "unit": "µM"}, {"measurement": "Ki", "setting": "Peregrin", "value": 0.14, "unit": "µM"}, {"measurement": "Ki", "setting": "[19]", "value": 1.4, "unit": "µM"}, {"measurement": "Ki", "setting": "[20]", "value": 0.84, "unit": "µM"}, {"measurement": "IC50", "setting": "[21]", "value": 0.04, "unit": "µM"}, {"measurement": "Ki", "setting": "[22]", "value": 0.11, "unit": "µM"}, {"measurement": "XC50", "setting": "Acetylcholinesterase", "value": 3.2, "unit": "µM"}]}
